PMC6834573, “Novel insights into transketolase activation by cofactor binding identifies two native species subpopulations” (Scientific Reports, 2019)
Values belong to the molecule of their own block, whether it stands above or below them.

Assays:
[1] = target: T1, wild-type E. coli transketolase (TK; TKhigh / TKlow subpopulations) (Escherichia coli, UniProt P27302); assay: intrinsic fluorescence quenching (ex […] nm, em […] nm), double-Hill fit; format: binding; conditions: second site, 9 mM Mg2+, 50 mM Tris-HCl pH 7.0, 22 °C, 0.05 mg/mL TK, low-affinity subpopulation TKlow (chemically unmodified enzyme)
T1 construct: gene tktA; full length, N-terminal His6-tag kept, from plasmid pQR791 in E. coli XL10-gold; apo form after dialysis; homodimer; about one third oxidised (TKhigh), rest unmodified (TKlow)

[2] = target: T1, wild-type E. coli transketolase (TK; TKhigh / TKlow subpopulations); assay: as above; format: binding; conditions: read-out: Kd(high)
[3] = target: the molecule itself; assay: AUC; sedimentation velocity, apoTK at 0.2 mg/mL without Mg2+ and TPP, 20 °C, pH 7.0, 40,000 rpm, c(s) analysis with SEDFIT; dimer to monomers

T1 sequence (P27302 whole entry): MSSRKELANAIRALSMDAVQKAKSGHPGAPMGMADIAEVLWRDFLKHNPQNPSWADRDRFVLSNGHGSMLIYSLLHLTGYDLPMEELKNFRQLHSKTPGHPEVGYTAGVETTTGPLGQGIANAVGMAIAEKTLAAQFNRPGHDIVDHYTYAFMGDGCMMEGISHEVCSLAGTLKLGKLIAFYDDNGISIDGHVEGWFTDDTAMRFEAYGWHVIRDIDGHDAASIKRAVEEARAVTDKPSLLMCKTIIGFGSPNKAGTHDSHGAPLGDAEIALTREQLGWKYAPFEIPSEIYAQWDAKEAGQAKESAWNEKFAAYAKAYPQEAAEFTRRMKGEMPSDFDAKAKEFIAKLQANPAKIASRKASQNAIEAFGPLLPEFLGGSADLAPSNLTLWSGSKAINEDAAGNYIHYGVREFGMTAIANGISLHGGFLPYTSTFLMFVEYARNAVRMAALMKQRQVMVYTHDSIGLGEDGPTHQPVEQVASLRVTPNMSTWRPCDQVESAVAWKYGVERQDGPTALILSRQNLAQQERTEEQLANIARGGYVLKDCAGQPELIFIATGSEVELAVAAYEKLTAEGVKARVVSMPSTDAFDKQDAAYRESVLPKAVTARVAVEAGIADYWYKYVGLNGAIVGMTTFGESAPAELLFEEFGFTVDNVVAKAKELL

Kd(low) [1]: 276000 ± 25000 nM | Kd [2]: 2290 ± 230 nM
Molecule: Cc1ncc(C[n+]2csc(CCOP(=O)(O)OP(=O)(O)O)c2C)c(N)n1 [TPP, thiamine pyrophosphate]

B1: Wild-type E. coli transketolase (apo-transketolase) (enzyme)
chain: SSRKELANAIRALSMDAVQKAKSGHPGAPMGMADIAEVLWRDFLKHNPQNPSWADRDRFVLSNGHGSMLIYSLLHLTGYDLPMEELKNFRQLHSKTPGHPEVGYTAGVETTTGPLGQGIANAVGMAIAEKTLAAQFNRPGHDIVDHYTYAFMGDGCMMEGISHEVCSLAGTLKLGKLIAFYDDNGISIDGHVEGWFTDDTAMRFEAYGWHVIRDIDGHDAASIKRAVEEARAVTDKPSLLMCKTIIGFGSPNKAGTHDSHGAPLGDAEIALTREQLGWKYAPFEIPSEIYAQWDAKEAGQAKESAWNEKFAAYAKAYPQEAAEFTRRMKGEMPSDFDAKAKEFIAKLQANPAKIASRKASQNAIEAFGPLLPEFLGGSADLAPSNLTLWSGSKAINEDAAGNYIHYGVREFGMTAIANGISLHGGFLPYTSTFLMFVEYARNAVRMAALMKQRQVMVYTHDSIGLGEDGPTHQPVEQVASLRVTPNMSTWRPCDQVESAVAWKYGVERQDGPTALILSRQNLAQQERTEEQLANIARGGYVLKDCAGQPELIFIATGSEVELAVAAYEKLTAEGVKARVVSMPSTDAFDKQDAAYRESVLPKAVTARVAVEAGIADYWYKYVGLNGAIVGMTTFGESAPAELLFEEFGFTVDNVVAKAKELL
notes: Transketolase (EC 2.2.1.1) of E. coli, wild type; monomeric molecular weight 73035.5 g/mol as printed; The preparation is a mixture; By mass spectrometry about 31% carries one or two extra oxygen atoms (TKhigh, most likely Cys157 sulfenic or sulfinic acid) and the rest is unmodified (TKlow); also called TK; apoTK; source: E. coli XL10-gold, from the plasmid pQR791, purified, ultrafiltrated and …
stoichiometry N [3]: 2
